Assay results as given in patent publication US20260373169A1, “SYNERGISTIC COMBINATION FOR THE TREATMENT OF CANCER” (FUNDACIÓN UNIVERSITARIA SAN ANTONIO (UCAM), priority 2023, published 2026).

Legend:
MCF-7 cells = experiment: Combination index / drug interaction (CompuSyn, Chou-Talalay), MCF-7; assay type: cell-based, human
Protocol: IC50 values were calculated using GraphPad Prism software.
According to the theory of T. C.

[1] = weekly doses of 20 mg/m^2; cited from earlier work
U-87 μMG cells = experiment: MTT cytotoxicity assay, U-87 μMG; conditions: Homo sapiens, U-87 MG, read-out: U-87 μMG cell survival
Protocol: Glimepiride and its analogs were first prepared as a stock solution in DMSO, and then the drugs were dissolved fresh in culture medium enriched with Tween 80 (final concentration 0.05%).
Human cancer cells (MCF-7, A549 and U-87 μMG) and normal endothelial cells (HMEC-1) were obtained from American Type Cell Culture (Rockville, MD). The cancer cell lines (MCF-7, A549 and U-87 μMG) were cultured as monolayers in Dulbecco's modified Eagle's medium supplemented with 10% (v/v) fetal bovine serum and 1% (v/v) penicillin/streptomycin mixture (10,000 U/mL penicillin and 10 mg/mL streptomycin) in a 100% humidified atmosphere of 5% CO2 and 95% air at 37 °C. […]
The cytotoxic activity of the test compounds against cancer cell lines was tested using the standard MTT (3-(4,5-dimethylthiazol-2-yl)-2,5-diphenyltetrazolium bromide) colorimetric assay. […] Plates were gently shaken at room temperature until the formazan was completely dissolved and read at 540 nm using a microplate reader. With the XTT method, there is no dissolution step in DMSO (XTT is reduced to a highly water-soluble, orange product instead of the insoluble formazan), and the plate is read at 450 nm. […] IC50 values were calculated using GraphPad Prism software. […]
All data are expressed as mean±standard deviation (SD) and presented as a percentage of control (untreated cells) taken as 100%, n=3 (or more). […]

gliomas = conditions: cited from earlier work
MDA-MB-231 cells = conditions: Glibenclamide alone; inhibiting the G1-S phase progression without inducing cell death or differentiation; cited from earlier work
[2] = analog 100-500 μM with Doxorubicin 0.225-0.900 μM, over a wide range of dose combinations

CCCNC(=O)NS(=O)(=O)c1ccc(Cl)cc1 [Chlorpropamide, 1-(4-chlorophenyl) sulfonyl-3-propylurea]
drug interaction with Doxorubicin (MCF-7 cells; [2]): strong or very strong synergy

COc1cccc2c1C(=O)c1c(O)c3c(c(O)c1C2=O)C[C@@](O)(C(=O)CO)C[C@@H]3O[C@H]1C[C@H](N)[C@H](O)[C@H](C)O1 [Doxorubicin, (7S,9S)-7-[(2R,4S,5S,6S)-4-amino-5-hydroxy-6 methyloxan-2-yl]oxy-6,9,11-trihydroxy-9-(2-hydroxyacetyl)-4-methoxy-8,10-dihydro-7H tetracene-5,12-dione]
incidence of congestive heart failure [1]: lower incidence of congestive heart failure | viability at 0.52 µM (U-87 μMG cells): 75.6% | clinical results vs systemic administration (gliomas; intracerebral administration, stage III or IV gliomas, Ommaya reservoir): Significantly better results | clinical efficacy in certain brain tumors, such as gliomas (gliomas; systemic administration): very limited efficacy | neurotoxicity (gliomas; very high systemic doses): highly neurotoxic

Cc1ccc(S(=O)(=O)NC(=O)NN2CC3CCCC3C2)cc1 (stereo not drawn) [Gliclazide, 1-(3,3a,4,5,6,6a-hexahydro-1H-cyclopenta[c]pyrrol-2-yl)-3-(4-methylphenyl) sulfonylurea]
drug interaction with Doxorubicin (MCF-7 cells; [2]): strong or very strong synergy

COc1ccc2c(c1)C(=O)N(CCc1ccc(S(=O)(=O)NC(=O)NC3CCCCC3)cc1)C(=O)C2(C)C [Gliquidone]
drug interaction with Doxorubicin (MCF-7 cells; 100 μM analog in combination with Doxorubicin (0.225-0.900 μM)): additive effect or slight antagonism | drug interaction with Doxorubicin (MCF-7 cells; Gliquidone with Doxorubicin, dose combinations other than 100 μM): synergistic effects

COc1ccc(Cl)cc1C(=O)NCCc1ccc(S(=O)(=O)NC(=O)NC2CCCCC2)cc1 [Glyburide]
drug interaction with Doxorubicin (MCF-7 cells; [2]): strong or very strong synergy | effect in MDA-MB-231 cells (MDA-MB-231 cells): cytostatic effect

Cc1ccc(S(=O)(=O)NC(=O)NN2CCCCCC2)cc1 [Tolazamide, 1-(azepan-1-yl)-3-(4-methylphenyl) sulfonylurea]
drug interaction with Doxorubicin (MCF-7 cells; [2]): strong or very strong synergy
